Data from the NIST ThermoML archive (doi:10.1021/je0340809).
± gives the expanded uncertainty stated by the source.

Experiment: xn = mol fraction of the nth substance listed
Details: 101.3 kPa, Liquid

CN1CCCC1=O [N-methylpyrrolidone] + O
Details	mass density [kg/m3]	speed of sound [m/s]	viscosity [mPa·s]
298.15 K, x2 = 0.0522	1029.55 ± 0.69	1548.8 ± 6.4	1.721 ± 0.041
298.15 K, x2 = 0.1684	1032.9 ± 0.71	1561 ± 6.4	1.985 ± 0.046
298.15 K, x2 = 0.2465	1035.15 ± 0.72	1579.5 ± 6.5	2.147 ± 0.05
298.15 K, x2 = 0.3481	1038.13 ± 0.74	1616.8 ± 6.6	2.535 ± 0.059
298.15 K, x2 = 0.4534	1041.65 ± 0.76	1653.8 ± 6.7	3.346 ± 0.076
298.15 K, x2 = 0.5018	1043.41 ± 0.77	1667.7 ± 6.7	3.838 ± 0.087
298.15 K, x2 = 0.5493	1045.11 ± 0.78	1682 ± 6.8	4.338 ± 0.097
298.15 K, x2 = 0.6504	1047.71 ± 0.8	1711.3 ± 6.9	5.159 ± 0.11
298.15 K, x2 = 0.752	1046.06 ± 0.79	1738.2 ± 6.9	5.071 ± 0.11
298.15 K, x2 = 0.8536	1035.21 ± 0.72	1748.1 ± 7	3.65 ± 0.083
298.15 K, x2 = 0.8742	1031.43 ± 0.7	1738.4 ± 6.9	3.224 ± 0.073
298.15 K, x2 = 0.8849	1029.24 ± 0.68	1730.9 ± 6.9	2.992 ± 0.068
298.15 K, x2 = 0.8996	1025.97 ± 0.66	1716.8 ± 6.9	2.668 ± 0.061
298.15 K, x2 = 0.9257	1019.43 ± 0.62	1681.1 ± 6.8	2.093 ± 0.049
298.15 K, x2 = 0.9368	1016.38 ± 0.6	1661 ± 6.7	1.857 ± 0.044
298.15 K, x2 = 0.9557	1010.88 ± 0.57	1621.2 ± 6.6	1.487 ± 0.036
298.15 K, x2 = 0.9641	1008.33 ± 0.55	1600.8 ± 6.5	1.338 ± 0.032
298.15 K, x2 = 0.9754	1004.82 ± 0.53	1571.3 ± 6.4	1.16 ± 0.029
298.15 K, x2 = 0.99	1000.21 ± 0.5	1529.1 ± 6.3	0.978 ± 0.025
308.15 K, x2 = 0.0522	1020.49 ± 0.63	1521.3 ± 6.3	1.405 ± 0.034
308.15 K, x2 = 0.1684	1023.58 ± 0.65	1533.3 ± 6.3	1.588 ± 0.038
308.15 K, x2 = 0.2465	1025.1 ± 0.66	1549.9 ± 6.4	1.702 ± 0.04
308.15 K, x2 = 0.3481	1028.58 ± 0.68	1578.3 ± 6.5	1.979 ± 0.047
308.15 K, x2 = 0.4534	1032.02 ± 0.7	1610.1 ± 6.6	2.567 ± 0.06
308.15 K, x2 = 0.5018	1033.74 ± 0.71	1624.8 ± 6.6	2.925 ± 0.067
308.15 K, x2 = 0.5493	1035.39 ± 0.72	1639.5 ± 6.6	3.289 ± 0.075
308.15 K, x2 = 0.6504	1037.97 ± 0.74	1672 ± 6.7	3.885 ± 0.088
308.15 K, x2 = 0.752	1036.73 ± 0.73	1702.6 ± 6.8	3.814 ± 0.087
308.15 K, x2 = 0.8536	1027.32 ± 0.67	1707.3 ± 6.9	2.76 ± 0.064
308.15 K, x2 = 0.8742	1024.02 ± 0.65	1700.3 ± 6.8	2.446 ± 0.057
308.15 K, x2 = 0.8849	1022.1 ± 0.64	1694.9 ± 6.8	2.273 ± 0.053
308.15 K, x2 = 0.8996	1019.23 ± 0.62	1685.4 ± 6.8	2.034 ± 0.048
308.15 K, x2 = 0.9257	1013.52 ± 0.58	1661.1 ± 6.7	1.609 ± 0.039
308.15 K, x2 = 0.9368	1010.86 ± 0.57	1647.4 ± 6.7	1.435 ± 0.035
308.15 K, x2 = 0.9557	1006.06 ± 0.54	1618.8 ± 6.6	1.16 ± 0.029
308.15 K, x2 = 0.9641	1003.83 ± 0.52	1603.6 ± 6.5	1.051 ± 0.026
308.15 K, x2 = 0.9754	1000.77 ± 0.5	1580.6 ± 6.4	0.92 ± 0.023
308.15 K, x2 = 0.99	996.769 ± 0.52	1546.1 ± 6.3	0.785 ± 0.02
318.15 K, x2 = 0.0522	1011.19 ± 0.58	1480.9 ± 6.2	1.232 ± 0.03
318.15 K, x2 = 0.1684	1014.09 ± 0.59	1493 ± 6.2	1.35 ± 0.032
318.15 K, x2 = 0.2465	1016.08 ± 0.6	1508.9 ± 6.2	1.429 ± 0.034
318.15 K, x2 = 0.3481	1018.81 ± 0.62	1535.9 ± 6.3	1.613 ± 0.038
318.15 K, x2 = 0.4534	1022.08 ± 0.64	1566.5 ± 6.4	2.03 ± 0.048
318.15 K, x2 = 0.5018	1023.72 ± 0.65	1580.9 ± 6.5	2.287 ± 0.053
318.15 K, x2 = 0.5493	1025.31 ± 0.66	1595.4 ± 6.5	2.547 ± 0.059
318.15 K, x2 = 0.6504	1027.9 ± 0.68	1628.2 ± 6.6	2.973 ± 0.068
318.15 K, x2 = 0.752	1027.12 ± 0.67	1661.2 ± 6.7	2.905 ± 0.067
318.15 K, x2 = 0.8536	1019.09 ± 0.62	1674.5 ± 6.7	2.117 ± 0.05
318.15 K, x2 = 0.8742	1016.22 ± 0.6	1670.7 ± 6.7	1.882 ± 0.045
318.15 K, x2 = 0.8849	1014.55 ± 0.59	1667.3 ± 6.7	1.754 ± 0.042
318.15 K, x2 = 0.8996	1012.06 ± 0.57	1660.9 ± 6.7	1.576 ± 0.038
318.15 K, x2 = 0.9257	1007.08 ± 0.54	1643.6 ± 6.6	1.261 ± 0.031
318.15 K, x2 = 0.9368	1004.77 ± 0.53	1633.5 ± 6.6	1.13 ± 0.028
318.15 K, x2 = 0.9557	1000.59 ± 0.5	1611.9 ± 6.5	0.928 ± 0.023
318.15 K, x2 = 0.9641	998.66 ± 0.51	1600.4 ± 6.5	0.845 ± 0.022
318.15 K, x2 = 0.9754	996.013 ± 0.52	1582.7 ± 6.5	0.747 ± 0.019
318.15 K, x2 = 0.99	992.557 ± 0.55	1556.1 ± 6.4	0.645 ± 0.017
328.15 K, x2 = 0.0522	1002.19 ± 0.52	1451.9 ± 6.1	1.124 ± 0.027
328.15 K, x2 = 0.1684	1004.9 ± 0.54	1463.8 ± 6.1	1.194 ± 0.029
328.15 K, x2 = 0.2465	1006.77 ± 0.55	1478.8 ± 6.1	1.234 ± 0.03
328.15 K, x2 = 0.3481	1009.34 ± 0.56	1504.2 ± 6.2	1.357 ± 0.033
328.15 K, x2 = 0.4534	1012.42 ± 0.58	1533.2 ± 6.3	1.647 ± 0.039
328.15 K, x2 = 0.5018	1013.98 ± 0.59	1547.1 ± 6.4	1.827 ± 0.043
328.15 K, x2 = 0.5493	1015.5 ± 0.6	1561.1 ± 6.4	2.011 ± 0.047
328.15 K, x2 = 0.6504	1018.05 ± 0.61	1593.5 ± 6.5	2.308 ± 0.054
328.15 K, x2 = 0.752	1017.63 ± 0.61	1627.4 ± 6.6	2.241 ± 0.052
328.15 K, x2 = 0.8536	1010.77 ± 0.57	1646.4 ± 6.7	1.645 ± 0.039
328.15 K, x2 = 0.8742	1008.28 ± 0.55	1645 ± 6.7	1.47 ± 0.035
328.15 K, x2 = 0.8849	1006.83 ± 0.54	1643.2 ± 6.6	1.374 ± 0.033
328.15 K, x2 = 0.8996	1004.66 ± 0.53	1639.2 ± 6.6	1.24 ± 0.03
328.15 K, x2 = 0.9257	1000.32 ± 0.5	1627.2 ± 6.6	1.004 ± 0.025
328.15 K, x2 = 0.9368	998.296 ± 0.51	1619.9 ± 6.6	0.907 ± 0.023
328.15 K, x2 = 0.9557	994.66 ± 0.53	1603.9 ± 6.5	0.753 ± 0.02
328.15 K, x2 = 0.9641	992.982 ± 0.54	1595.2 ± 6.5	0.692 ± 0.018
328.15 K, x2 = 0.9754	990.687 ± 0.56	1581.7 ± 6.5	0.618 ± 0.017
328.15 K, x2 = 0.99	987.705 ± 0.58	1561.2 ± 6.4	0.541 ± 0.015
338.15 K, x2 = 0.0522	993.182 ± 0.55	1410.7 ± 5.9	0.987 ± 0.025
338.15 K, x2 = 0.1684	995.706 ± 0.53	1422.8 ± 6	1.026 ± 0.025
338.15 K, x2 = 0.2465	997.455 ± 0.52	1437.4 ± 6	1.048 ± 0.026
338.15 K, x2 = 0.3481	999.87 ± 0.51	1461.9 ± 6.1	1.129 ± 0.028
338.15 K, x2 = 0.4534	1002.78 ± 0.52	1490.2 ± 6.2	1.332 ± 0.032
338.15 K, x2 = 0.5018	1004.25 ± 0.53	1504 ± 6.2	1.46 ± 0.035
338.15 K, x2 = 0.5493	1005.71 ± 0.54	1518 ± 6.3	1.591 ± 0.038
338.15 K, x2 = 0.6504	1008.2 ± 0.56	1551 ± 6.4	1.799 ± 0.043
338.15 K, x2 = 0.752	1008.09 ± 0.55	1587.1 ± 6.5	1.74 ± 0.042
338.15 K, x2 = 0.8536	1002.25 ± 0.52	1613.3 ± 6.6	1.292 ± 0.032
338.15 K, x2 = 0.8742	1000.1 ± 0.5	1614.4 ± 6.6	1.161 ± 0.029
338.15 K, x2 = 0.8849	998.836 ± 0.51	1614.4 ± 6.6	1.089 ± 0.027
338.15 K, x2 = 0.8996	996.948 ± 0.52	1613 ± 6.6	0.99 ± 0.025
338.15 K, x2 = 0.9257	993.171 ± 0.54	1602.6 ± 6.5	0.813 ± 0.021
338.15 K, x2 = 0.9368	991.416 ± 0.55	1602.1 ± 6.5	0.74 ± 0.019
338.15 K, x2 = 0.9557	988.261 ± 0.57	1591.8 ± 6.5	0.627 ± 0.017
338.15 K, x2 = 0.9641	986.808 ± 0.58	1585.9 ± 6.5	0.58 ± 0.016
338.15 K, x2 = 0.9754	984.827 ± 0.59	1576.7 ± 6.4	0.524 ± 0.015
338.15 K, x2 = 0.99	982.266 ± 0.61	1562.4 ± 6.4	0.467 ± 0.013
